# How the values were obtained:
# human plasma proteins = conditions: 100 nM Compound Concentrations; 48 hours or longer at room temperature
# [1] = closed E-ring lactone form; drug dissolving in 1 mL of water; cited from earlier work
smiles,measurement,setting,value
"CC[C@@]1(O)C(=O)OCc2c1cc1n(c2=O)Cc2cc3ccccc3nc2-1 [CPT, (S)-4-Ethyl-4-hydroxy-1 H-pyrano[3',4':6,7]indolizino[1,2-b]quinoline-3,14(4H,12H)-dione]",Percent of Free Camptothecin Analogs in Human Plasma,human plasma proteins,0%
same,solubility in water,[1],approximately 0.1 µg
